The values that follow come from ChEMBL document CHEMBL2010717, “Design of oxobenzimidazoles and oxindoles as novel androgen receptor antagonists” (Bioorg Med Chem Lett, 2012).

For data set [1], the target named is T1, Androgen receptor (Homo sapiens) (UniProt P10275).
T1 sequence (whole entry): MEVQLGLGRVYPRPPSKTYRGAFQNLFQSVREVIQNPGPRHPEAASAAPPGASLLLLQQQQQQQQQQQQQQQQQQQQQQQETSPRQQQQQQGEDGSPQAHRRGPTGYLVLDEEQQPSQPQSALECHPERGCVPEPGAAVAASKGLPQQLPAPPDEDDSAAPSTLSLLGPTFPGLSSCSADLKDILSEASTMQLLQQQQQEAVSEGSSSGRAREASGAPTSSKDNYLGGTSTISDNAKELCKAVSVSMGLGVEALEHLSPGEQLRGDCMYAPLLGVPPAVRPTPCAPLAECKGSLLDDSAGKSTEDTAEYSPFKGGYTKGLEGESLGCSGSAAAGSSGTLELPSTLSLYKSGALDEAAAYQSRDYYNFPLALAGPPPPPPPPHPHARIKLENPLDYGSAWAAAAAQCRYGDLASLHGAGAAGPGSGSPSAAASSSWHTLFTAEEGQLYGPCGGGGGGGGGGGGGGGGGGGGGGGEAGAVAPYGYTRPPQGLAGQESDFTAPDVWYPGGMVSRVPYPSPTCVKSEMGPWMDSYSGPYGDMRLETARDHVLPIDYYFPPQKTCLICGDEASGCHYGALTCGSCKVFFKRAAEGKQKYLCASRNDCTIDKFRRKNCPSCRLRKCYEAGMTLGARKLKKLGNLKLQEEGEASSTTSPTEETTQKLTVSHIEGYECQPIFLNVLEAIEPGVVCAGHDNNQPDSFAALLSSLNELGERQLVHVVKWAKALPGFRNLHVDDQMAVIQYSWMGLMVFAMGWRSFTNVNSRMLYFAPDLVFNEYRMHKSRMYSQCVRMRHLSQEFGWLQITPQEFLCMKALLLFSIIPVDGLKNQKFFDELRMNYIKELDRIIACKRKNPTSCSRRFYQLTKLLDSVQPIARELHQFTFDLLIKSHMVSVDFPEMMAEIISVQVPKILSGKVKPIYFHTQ
In words: Agonist activity at androgen receptor in human LNAR cells expressing ARE-PSA-LUC at 1 uM by luminescence analysis relative to RD-162. The class given is functional, cell-based.

The target in data set [2] is T1, Androgen receptor (Homo sapiens). Description: Antagonist activity at androgen receptor in human LNAR cells expressing ARE-PSA-LUC at 1 uM by luminescence analysis in presence of R1881. It is filed as functional, cell-based.
The nature of data set [3]: Aqueous solubility of the compound. It is filed as physicochemical.
For a further data set, the target named is T2, Androgen receptor (Homo sapiens, UniProt P10275).
T2 sequence (P10275 whole entry): T1 sequence (whole entry)
In words: Antagonist activity at androgen receptor in human LNAR cells expressing ARE-PSA-LUC by luminescence analysis in presence of R1881. The class given is functional, cell-based.

Data set [4] can be described thus: Metabolic stability in human liver microsomes assessed as extraction ratio. The class given is ADME, Microsome. The note with it: read-out: ERH. On the technique in general: Microsomes from liver hold many membrane-bound enzymes, among them those of drug oxidation.

Values after ≈ are worked out from the molar mass of the structure shown.

The inhibition is how much of the control response was suppressed. Usually solubility stands for the concentration that dissolves in the medium under given conditions. Take `CNC(=O)c1ccc(-n2c(=O)n(-c3ccc(C#N)c(C(F)(F)F)c3)c3ccccc32)cc1F`: the fold change (FC) in data set [1] was determined as 1.44. For the same compound, the inhibition in data set [2] was found to be 28.7%. In data set [3] (aqueous, read-out: solubility), the solubility is 8.81 µM (≈ 4 µg/mL).

In the case of `N#CCn1c(=O)n(-c2ccc(C#N)c(C(F)(F)F)c2)c2ccccc21`, the fold change (FC) in data set [1] turned out to be 1.42. The inhibition in data set [2] is 94.8%. Moreover, the solubility in data set [3] (aqueous, read-out: solubility) came to 18.9 µM (≈ 6.47 µg/mL).

By IC50 is commonly meant the concentration at which inhibition is half-maximal. As for `N#Cc1ccc(-n2c(=O)n(Cc3cccnc3)c3ccccc32)cc1C(F)(F)F`, the IC50 on Androgen receptor amounted to 389 nM. Besides, the fold change (FC) in data set [1] came out at 0.984. In addition, the solubility in data set [3] (aqueous, read-out: solubility) was found to be 2.5 µM (≈ 0.986 µg/mL).

With `N#Cc1ccc(-n2c(=O)n(Cc3ccccc3)c3cccnc32)cc1C(F)(F)F`, the 50% inhibitory concentration (IC50) at Androgen receptor was 60.6 nM. In data set [1], the fold change (FC) came out at 1.13. The solubility in data set [3] (aqueous, read-out: solubility) is under 0.5 µM.

With `CC(C)n1c(=O)n(-c2ccc(C#N)c(C(F)(F)F)c2)c2ccccc21`, the IC50 on Androgen receptor came out at 373 nM. Moreover, the fold change (FC) in data set [1] amounted to 0.965. Further, the solubility in data set [3] (aqueous, read-out: solubility) came to 9.3 µM (≈ 3.21 µg/mL).

Turning to `CNC(=O)c1ccc(Cn2c(=O)n(-c3ccc(C#N)c(C(F)(F)F)c3)c3ccccc32)cc1F`, the fold change (FC) in data set [1] is 1.08. Besides, in data set [2], the inhibition was determined as 72.5%. For the same compound, the solubility in data set [3] (aqueous, read-out: solubility) is 9.9 µM (≈ 4.64 µg/mL).

Consider `CNC(=O)c1ccc(-c2ccc3c(c2)C(C)(C)C(=O)N3c2ccc(C#N)c(OC)c2)cc1F`, for which the half-inhibitory concentration (IC50) on Androgen receptor was 165 nM. Further, in data set [1], the fold change (FC) was 0.884. Further, the solubility in data set [3] (aqueous, read-out: solubility) turned out to be 9.7 µM (≈ 4.3 µg/mL). Further, in data set [4], the hepatic extraction ratio was under 0.25.

Consider `N#Cc1ccc(-n2c(=O)n(Cc3nc(-c4ccccn4)no3)c3ccccc32)cc1Cl`, for which the IC50 at Androgen receptor is 126 nM. The fold change (FC) in data set [1] worked out at 0.941. Further, in data set [3] (aqueous, read-out: solubility), the solubility came out at 5.9 µM (≈ 2.53 µg/mL).

Take `CC(c1nc(-c2ccccn2)no1)n1c(=O)n(-c2ccc(C#N)c(Cl)c2)c2ccccc21` (stereo in doubt; (-)-23) [listing 1 of 2 here]: in data set [1], the fold change (FC) was 0.945.

For `N#Cc1ncc(-n2c(=O)n(Cc3ccccc3)c3cccnc32)cc1C(F)(F)F`, the fold change (FC) in data set [1] was 1.1. Besides, in data set [2], the inhibition was 96.3%. In data set [3] (aqueous, read-out: solubility), the solubility turned out to be 1.7 µM (≈ 0.672 µg/mL).

For `CC(c1nc(-c2ccccn2)no1)n1c(=O)n(-c2ccc(C#N)c(Cl)c2)c2ccccc21` (single isomer, unassigned; (+)) [listing 1 of 2 here], on Androgen receptor, the IC50 was 178 nM. For the same compound, in data set [3] (aqueous, read-out: solubility), the solubility came to 9.45 µM (≈ 4.19 µg/mL).

Consider `CC(c1ccccc1)n1c(=O)n(-c2ccc(C#N)c(C(F)(F)F)c2)c2ccccc21` (stereo in doubt; (-)-20) [listing 1 of 2 here], for which the IC50 on Androgen receptor amounted to 363 nM. Also, in data set [3] (aqueous, read-out: solubility), the solubility was 5.58 µM (≈ 2.27 µg/mL).

On to `Cc1ccc(-n2c(=O)n(-c3ccc(C#N)c(C(F)(F)F)c3)c3ccccc32)cc1`, for which the fold change (FC) in data set [1] is 0.88. Further, the inhibition in data set [2] amounted to 12.6%. In addition, the solubility in data set [3] (aqueous, read-out: solubility) turned out to be 0.79 µM (≈ 0.311 µg/mL).

With `CC(c1nc(-c2ccccn2)no1)n1c(=O)n(-c2ccc(C#N)c(Cl)c2)c2ccccc21` (single isomer, unassigned; (+)) [listing 2 of 2 here], in data set [1], the fold change (FC) came out at 0.874.

In the case of `CNC(=O)c1ccc(-c2ccc3c(c2)C(C)(C)C(=O)N3c2ccc(C#N)c(C(F)(F)F)c2)cc1F`, the IC50 on Androgen receptor is 197 nM. Moreover, in data set [1], the fold change (FC) turned out to be 0.941. Besides, in data set [3] (aqueous, read-out: solubility), the solubility worked out at 6.25 µM (≈ 3.01 µg/mL). In addition, the hepatic extraction ratio in data set [4] was found to be 0.4.

Take `N#Cc1ncc(-n2c(=O)n(Cc3ccccc3)c3ccccc32)cc1C(F)(F)F`: the fold change (FC) in data set [1] came to 1.04. Also, the inhibition in data set [2] was 91%. The solubility in data set [3] (aqueous, read-out: solubility) turned out to be 5.3 µM (≈ 2.09 µg/mL).

Turning to `N#Cc1ccc(-n2c(=O)n(Cc3ccccc3)c3ccccc32)cc1C(F)(F)F`, on Androgen receptor, the IC50 came out at 170 nM. For the same compound, the fold change (FC) in data set [1] amounted to 1.04. Further, the solubility in data set [3] (aqueous, read-out: solubility) was under 0.16 µM.

`CC(c1ccccc1)n1c(=O)n(-c2ccc(C#N)c(C(F)(F)F)c2)c2ccccc21` (stereo in doubt; (-)-20) [listing 2 of 2 here]: the fold change (FC) in data set [1] was 0.833.

With `CC1(C)C(=O)N(c2ccc(C#N)c(C(F)(F)F)c2)c2ccccc21`, the fold change (FC) in data set [1] came to 1.96. For the same compound, in data set [2], the inhibition came out at 75.7%.

Consider `N#Cc1ccc(-n2c(=O)n(Cc3ccccn3)c3ccccc32)cc1C(F)(F)F`, for which the IC50 at Androgen receptor stood at 301 nM. The fold change (FC) in data set [1] amounted to 1.03. The solubility in data set [3] (aqueous, read-out: solubility) was 12 µM (≈ 4.73 µg/mL).

Take `COc1cc(N2C(=O)C(C)(C)c3cc(-c4cccnc4OC)ccc32)ccc1C#N`: the IC50 at Androgen receptor is 79.6 nM. Besides, the fold change (FC) in data set [1] was found to be 1.04. Further, the solubility in data set [3] (aqueous, read-out: solubility) is 9.8 µM (≈ 3.91 µg/mL).

In the case of `N#Cc1ccc(-n2c(=O)n(Cc3ccccc3)c3ncccc32)cc1C(F)(F)F`, on Androgen receptor, the concentration for half-maximal inhibition (IC50) came to 588 nM. In data set [1], the fold change (FC) amounted to 0.951.

With `CC(c1ccccc1)n1c(=O)n(-c2ccc(C#N)c(C(F)(F)F)c2)c2ccccc21` (single isomer, unassigned; (+)) [listing 1 of 2 here], at Androgen receptor, the IC50 was 292 nM. The same compound had a solubility in data set [3] (buffer) of 4.41 µM (≈ 1.8 µg/mL).

`CC(c1ccccc1)n1c(=O)n(-c2ccc(C#N)c(C(F)(F)F)c2)c2ccccc21` (single isomer, unassigned; (+)) [listing 2 of 2 here]: the fold change (FC) in data set [1] came to 0.904.

On to `N#Cc1ccc(-n2c(=O)[nH]c3ccccc32)cc1C(F)(F)F`, for which the fold change (FC) in data set [1] is 6.2. In addition, in data set [2], the inhibition came to 60.1%. The solubility in data set [3] (aqueous, read-out: solubility) turned out to be 7.9 µM (≈ 2.4 µg/mL).

Take `CCn1c(=O)n(-c2ccc(C#N)c(C(F)(F)F)c2)c2ccccc21`: the IC50 at Androgen receptor was 293 nM. Further, the fold change (FC) in data set [1] was 1.08. Further, the solubility in data set [3] (aqueous, read-out: solubility) came to 3.47 µM (≈ 1.15 µg/mL).

For `CC(c1nc(-c2ccccn2)no1)n1c(=O)n(-c2ccc(C#N)c(Cl)c2)c2ccccc21` (stereo in doubt; (-)-23) [listing 2 of 2 here], the IC50 on Androgen receptor was 189 nM.
